Measurements from patent publication US4868158A, “Method for the production of a macromolecular carrier loaded with a biologically active substance” (Oncholab AB, priority 1985, dated 1989).

Tested on: WEHI-3B cells, a murine monomyelocytic cell line
Settings: 1.0 million WEHI-3B cells i.p.; 1.9 mg AD-32/kg/day i.p. for five days
Procedure: Balb/C mice were injected intraperitonally (i.p.) with 1.0 million WEHI-3B cells, a murine monomyelocytic cell line. […] The AD-32 was administered i.p. dissolved in a mixture of ethanol and castor oil.

For `CCCCC(=O)OCC(=O)C1(O)Cc2c(O)c3c(c(O)c2C(OC2CC(NC(=O)C(F)(F)F)C(O)C(C)O2)C1)C(=O)c1c(OC)cccc1C3=O` (stereo not shown) [AD-32, N-trifluoroacetyladriamycin-14-valerate], the “ILS, Increased Life Span” value was 2%.
